Source: patent US20040116505A1, “Treatment of tics, tremors and related disorders” (priority 2001, published 2004)

Legend:
[1] = test system: patients suffering from tics; test: Study in five patients suffering from tics who failed standard drug therapies; assay type: in vivo, human; conditions: five patients non-responsive to standard tic therapies; 250 mg BID or 500 mg BID to 1500 mg BID
Description: Patients received either Low (250 mg BID) or standard doses (500 mg BID to 1500 mg BID) of levetiracetam.

[2] = cited from earlier work
[3] = in vivo; cited from earlier work

SMILES: CC[C@@H](C(N)=O)N1CCCC1=O [levetiracetam, (S)-2-(2-Oxo-pyrrolidin-1-yl)-butyramide]
- reduction of tic symptoms [1]: majority of patients experienced a reduction of tic symptoms
- levetiracetam excreted unchanged or as an inactive metabolite ([2]; in vivo): 90%
- oral bioavailability ([2]; oral): ~100%
- side effects [3]: minimal side effects
